Measured values reported in patent US8377991B2, “Trans-clomiphene for metabolic syndrome” (priority 2007, dated 2013).
Structures can show the parent of a compound that is named as a salt.

How the values were obtained:
total serum testosterone = assay: Serum testosterone in male baboons given Clomid, Enclomid or Zuclomid; type: in vivo; conditions: for effect on total serum testosterone: 1.5 mg/kg for 12 days, vs baseline or day 0
Description: There were significant increases in total serum testosterone in the group receiving Enclomid. There were no differences among groups in the baseline period or at day 0. There were also no differences among the three groups 7 days after treatment (the washout period). However, Enclomid produced higher levels of testosterone compared to Clomid and Zuclomid on day 6 (p=0.03 and p=0.00002 respectively) and compared to Zuclomid on day 12 (p=0.047). […] Enclomid was clearly better and more consistent than Clomid itself and Zuclomid was ineffective.

[1] = in vivo
Description: Adult, male, Baboons were given 1.5 mg/kg of Clomid (clomiphene citrate), Enclomid (trans-Clomiphene) or Zuclomid (cis-clomiphene) for 12 consecutive days. The samples analyzed were sera taken on the day of first treatment before being given test article (day 0), after 12 days of treatment (day 12) and 7 days after the last treatment (end or wash-out).

serum LH, FSH, PRL = assay: Body weight and serum LH, FSH, PRL in male baboons; type: in vivo; conditions: during the study
Description: There were no changes in serum LH or FSH. […] There was also no change in body weight during the 12 day study.

[2] = Androxal vs Androgel study: other clinical chemistry (DHT/TT, triglycerides) and side effects; type: in vivo; conditions: hypogonadal men, after two weeks of therapy; non-dose dependent
total testosterone = conditions: hypogonadal men; 50 mg dose
Description: (§1) A placebo controlled challenge study was conducted at the Advanced Biological Research, Inc. (ABR) Clinical Research Center in Hackensack, N.J. to compare orally administered Androxal™ (trans-clomiphene) to Androgel® in hypogonadal men.
(§2) Half of the men in each of the Androxal™ and placebo arms were randomized into cohorts that underwent in-clinic sessions on days 1 and 14 to determine pharmacokinetic parameters for Androxal™ as well as cyclical changes in testosterone. The placebo and Androxal™ doses were administered in a double blind fashion. The Androgel® cream was administered in an open label fashion. Half of the Androgel® patients underwent in-clinic sessions similar to the other patients in the study. Following the two week drug exposure, patients were followed for an additional seven to ten days to determine the status of their testosterone levels.

serum LH and FSH = conditions: hypogonadal male subjects, two week treatment
Description: as §1, §2

fasting glucose levels = conditions: patients with BMI>26; 50 mg dose; at the 3 and 4.5 month periods
Description: A placebo controlled study was conducted to determine the effects of orally administered Androxal™ (trans-clomiphene) and Androgel® on blood glucose levels.
The study enrolled hypogonadal men (testosterone less than 300 ng/dl) with a broad range of body mass indices (BMI). […] The placebo and Androxal™ doses were administered in a double blind fashion. The Androgel® cream was administered in an open label fashion. Fasting glucose levels were monitored in the patients immediately prior to treatment (baseline) and at regular intervals during the study.

Row | Compound | effect on total serum testosterone (total serum testosterone) | ALT/SGPT [1] | BUN and BUN/creatinine [1] | serum carbon dioxide [1] | increase in serum glucose ([1]; 1.5 mg/kg) | total serum testosterone after cessation of treatment (total serum testosterone; day 12 to day 18 (washout)) | serum prolactin (PRL) (serum LH, FSH, PRL) | reduction in triglycerides, average decrease [2] [%] | percent of granulocytes in the blood [1] | platelet count [1] | serum alkaline phosphatase (ALP) [1] | counts of eosinophiles ([1]; 1.5 mg/kg) | effects on the red blood cell population ([1]; 1.5 mg/kg) | mean total testosterone after 15 days (total testosterone) [ng/dL] | serum levels of FSH (serum LH and FSH) | reduction in serum glucose from baseline (fasting glucose levels) [mg/dL]
1 | CCN(CC)CCOc1ccc(C(=C(Cl)c2ccccc2)c2ccccc2)cc1 [Clomid, clomiphene citrate] | more variable total testosterone levels on day 6 and later | out of range low at the end of the study | altered during the study | higher than reference values on day 12 | within the normal range | – | – | – | – | – | – | – | – | – | – | –
2 | CCN(CC)CCOc1ccc(/C(=C(\Cl)c2ccccc2)c2ccccc2)cc1 [Enclomid, trans-clomiphene] | significantly and statistically raised total serum testosterone on days 6 and 12 | – | altered during the study | – | no increases with treatment | significant drop in the level of total serum testosterone between day 12 and day 18 | decrease in serum prolactin (PRL) | 19.1 | strong effect of Enclomid on lowering the percent of granulocytes | pushed the platelet count to its normal male level | decreased in value | raising the counts of lymphocytes and eosinophiles | substantive effects on the red blood cell population | 589 ± 172 | boosts serum FSH | ~24
3 | CCN(CC)CCOc1ccc(/C(=C(/Cl)c2ccccc2)c2ccccc2)cc1 [Zuclomid, cis-clomiphene] | – | – | – | higher than reference values on day 12 | within the normal range | – | – | – | – | – | not elevated | – | substantive effects on the red blood cell population | – | – | –
